Measurements: patent publication US10716797B2, “Steroid alkaloids and compositions and kits thereof” (priority 2013, dated 2020)
Like-named read-outs stand apart in the source and are kept apart here.

Legend:
[1] = test system: Staphylococcus aureus ATCC 29213; experiment: MIC by microdilution, compound alone or in combination with an aminoglycoside; format: cell-based; conditions: for potentiation / synergy with aminoglycoside (gentamicin) in words: S. aureus ATCC 29213; for MIC vs ATCC29213: hydrochloride; for Combination MIC vs ATCC29213 (MIC of gentamicin in combination with the compound): MIC of gentamicin alone 0.5 μg/mL; for MIC of aminoglycoside against S. aureus ATCC 29213 in combination with Compound 14: Compound 14 used at 4 μg/mL; for Potentiation fold with Compound 14: MIC aminoglycoside alone / MIC with Compound 14 at 4 μg/mL; for MIC: Staphylococcus aureus, ATCC29213, 20 h
Protocol: (§1) Method. The minimal inhibitory concentrations (MICs), (i.e. lowest concentration of an antimicrobial that will inhibit the visible growth of a microorganism after incubation), of test compounds were determined against the normal or SCV strains of bacterial species from the Firmicutes phylum. Briefly, MICs were determined using the microdilution method in 96-well plates (Clinical and Laboratory Standards Institute (CLSI), 2011). Bacteria were inoculated at ˜10^5-10^6 CFU/mL and incubated at 35° C. for 20 h (normal strains) or 48 h (SCVs) in brain heart infusion (BHI) broth in order to allow SCVs to reach maximal growth as previously described (Mitchell et al., 2012). Then OD595 nm was read on a microplate reader. […] In this example the range of compound concentrations tested was 0.03 to 64 μg/ml using doubling increments. Strain Staphylococcus aureus NewbouldΔhemB (hemB) was also used in the experiments and is a laboratory-derived stable SCV created by the insertion of the macrolide resistance gene ermA in the hemB gene of this strain to create the SCV phenotype (defective electron transport chain and respiratory deficiency) through inactivation of hemin biosynthesis (Brouillette et al., 2004).
The various antibacterial activities of the test compounds against Staphylococcus aureus ATCC 29213, alone or in combination with gentamicin, and alone against the SCV strain hemB are reported in Table 1.

[2] = test system: S. aureus SCV strain NewbouldΔhemB; experiment: MIC by microdilution against SCV strain; format: cell-based, Staphylococcus aureus; conditions: for Activity of the compounds against the SCV strain (class) / MIC vs SCV: compound tested alone, strain NewbouldΔhemB
Protocol: as §1, with “2004). […]” for “2004).”

MRSA USA300 = experiment: MIC by microdilution, alone or in combination, MRSA USA300; format: cell-based, Staphylococcus aureus; conditions: agent used alone
Protocol: as §1
(§2) In the present Example the range of compound concentrations tested, using doubling increments, was 0.03 to 64 μg/ml for Compound 14 and up to 1024 μg/ml for gentamicin (GEN), kanamycin (KAN) and cefalexin (CEF) when these compounds were used alone. Compound 14 (Cpd 14) was used at a fixed concentration of 4 μg/ml when added to other antibiotics. The combination of CEF and KAN was used in a 3:2 ratio and doubling increments were used to test the antibacterial activity against MRSA in the absence or presence of Compound 14.

MRSA USA100 = experiment: MIC by microdilution, alone or in combination, MRSA USA100; format: cell-based, Staphylococcus aureus; conditions: agent used alone
Protocol: as §1, §2

MRSA COL = experiment: MIC by microdilution, alone or in combination, MRSA COL; format: cell-based, Staphylococcus aureus; conditions: agent used alone
Protocol: as §1, §2

S. aureus hemB (SaR2) = experiment: MIC against tomatidine-resistant SCV mutant SaR2; format: cell-based, Staphylococcus aureus; conditions: tomatidine-resistant mutant SaR2
Protocol: (§3) At each passage, using a microdilution method in 96-well microplates, S. aureus hemB was inoculated at ˜10^5-10^6 CFU/ml and incubated at 35° C. for 48 h. The range of tomatidine concentrations tested was 0.03 to 64 μg/ml using doubling increments. The concentration of gentamicin was fixed at 4 μg/mL when it was used in combination with tomatidine. At each passage, the minimal inhibitory concentrations (MICs) (i.e. lowest concentration of an antimicrobial that inhibits the visible growth of bacteria), of tomatidine was determined. The bacteria used as inoculum for the next passage were from the well preceeding the well showing the MIC (i.e. the well containing half the MIC). At each passage, the population of bacteria serving as the inoculum for the next passage was spread on BHI agar plates and three isolated colonies were collected and frozen until used for whole-genome sequencing.

S. aureus hemB (SaR1) = experiment: MIC against tomatidine-resistant SCV mutant SaR1; format: cell-based, Staphylococcus aureus; conditions: tomatidine-resistant mutant SaR1
Protocol: as §3

[3] = test system: Listeria monocytogenes (strain ATCC 13932); experiment: Time-kill experiments, Listeria monocytogenes; format: cell-based
Protocol: Time-kill experiments were performed in order to determine whether the effect of test compounds or the combination with an aminoglycoside on Listeria monocytogenes (strain ATCC 13932) is bacteriostatic (prevents growth) or bactericidal (kills cells).
At several time points during growth at 35° C. (225 RPM), bacteria were sampled, serially diluted and plated on Brain Hearth Infusion agar (BHIA) for colony-forming unit (CFU) determinations (i.e., viable bacterial counts). Plates were incubated for 24 h at 35° C. It represents the results of three independent experiments.

[4] = test system: methicillin-resistant Staphylococcus aureus (MRSA) strains; experiment: MIC against MRSA strains; format: cell-based; conditions: Staphylococcus aureus, MRSA, used alone; tested MRSA strains (kanamycin: two of the strains)
Protocol: as §1, §2

[5] = read-out: MIC of aminoglycoside against S. aureus ATCC 29213, aminoglycoside alone
[6] = Staphylococcus aureus, read-out: MIC
[7] = MIC gentamicin alone / MIC gentamicin with compound at 8 μg/mL
[8] = compound tested alone, read-out: MIC vs ATCC29213
[9] = Staphylococcus aureus, read-out: MIC vs SCV
[10] = S. aureus hemB (SCV strain NewbouldΔhemB)

`C[C@H]1CC[C@]2(NC1)O[C@H]1C[C@H]3[C@@H]4CC[C@H]5CC(NCCCCN)CC[C@]5(C)[C@H]4CC[C@]3(C)[C@H]1[C@@H]2C.Cl.Cl.Cl` (stereo partly shown) [Compound 16, 3-(N-aminobutyl)-aminotomatidine hydrochloride] was tested, and the “potentiaton fold with gentamicin” value ([1]; MIC gentamicin alone / MIC gentamicin with compound at 4 μg/mL) was 4-8 x, the “potentiation / synergy with aminoglycoside (gentamicin) in words” value (from here on “potentiation / synergy”) [1] was “retain the ability to potentiate” and the “activity vs ATCC29213 in words” value ([1]; compound tested alone) was “Active”. The “MIC vs ATCC29213” value ([1]; compound tested alone) was 16 µg/mL, the “potentiation activity with gentamicin in words” value (shortened to “potentiation activity”) ([1]; compound used at 4 μg/mL) was “Moderate-high” and the “Combination MIC vs ATCC29213 (MIC of gentamicin in combination with the compound)” value (“Combination MIC vs ATCC29213” for short) ([1]; compound used at 4 μg/mL) was 0.06-0.12. The “Activity of the compounds against the SCV strain (class)” value (shortened to “Activity of the compounds”) [2] was “Moderate (MIC = 0.5-4 μg/mL: moderate activity)” and the “MIC vs SCV” value [2] was 0.5 µg/mL.

`NC[C@H]1O[C@H](O[C@H]2[C@H](O)[C@@H](O[C@H]3O[C@H](CO)[C@@H](O)[C@H](N)[C@H]3O)[C@H](N)C[C@@H]2N)[C@H](O)[C@@H](O)[C@@H]1O` [Kanamycin, kanamycin, reference compound] was tested, and the “MIC of aminoglycoside against S. aureus ATCC 29213 in combination with Compound 14” value (“MIC of aminoglycoside … with Compound 14” for short) [1] was 0.25 µg/mL, the “Potentiation fold with Compound 14” value [1] was 16 fold and the MIC [1, 5] was 4 µg/mL. The MIC (MRSA USA300; [6]) was over 1020 µg/mL, the MIC (MRSA USA100; [6]) was 256 µg/mL and the MIC (MRSA COL; [6]) was 4 µg/mL.

For `NC[C@H]1O[C@H](O[C@H]2[C@H](O)[C@@H](O[C@H]3O[C@H](CO)[C@@H](O)[C@H](N)[C@H]3O)[C@H](N)C[C@@H]2N)[C@H](N)C[C@@H]1O` [Tobramycin, reference compound], the “MIC of aminoglycoside … with Compound 14” value [1] was 0.125 µg/mL, the “Potentiation fold with Compound 14” value [1] was 8 fold and the MIC [1, 5] was 1 µg/mL.

In the case of `C[C@H]1CC[C@]2(NC1)O[C@H]1C[C@H]3[C@@H]4CC[C@H]5CC(NCCCCCCN)CC[C@]5(C)[C@H]4CC[C@]3(C)[C@H]1[C@@H]2C.Cl.Cl.Cl` (stereo partly shown) [Compound 18, 3-(N-aminohexyl)-aminotomatidine hydrochloride], the “potentiaton fold with gentamicin” value [1, 7] is reported as 2-4 x, the “potentiation activity” value ([1]; compound used at 8 μg/mL) is reported as “Moderate” and the “Combination MIC vs ATCC29213” value ([1]; compound used at 8 μg/mL) is reported as 0.12-0.25. For the same molecule, the “Activity of the compounds” value [2] was “Moderate (MIC = 0.5-4 μg/mL: moderate activity)” and the “MIC vs SCV” value [2] was 1 µg/mL.

For `CC(C)CCNC(C)[C@H]1CC[C@H]2[C@@H]3CC[C@H]4C[C@@H](O)CC[C@]4(C)[C@H]3CC[C@]12C.Cl` (mixture of isomers) [Compound 50, 3β-Hydroxy-20-isopentylamino-5α-pregnane hydrochloride], the “potentiaton fold with gentamicin” value [1, 7] was 4 x, the “potentiation / synergy” value [1] was “strong or moderate synergy” and the MIC [1, 8] was over 64 µg/mL. For the same molecule, the “potentiation activity” value ([1]; compound used at 8 μg/mL) was “Moderate”, the “Combination MIC vs ATCC29213” value ([1]; compound used at 8 μg/mL) was 0.12 and the MIC [2, 9] was over 8 µg/mL. The “Activity of the compounds” value [2] was “Low (MIC = ≥8 μg/mL: low activity)”.

gentamicin [reference compound] was tested, and the “MIC of aminoglycoside against S. aureus ATCC 29213, aminoglycoside alone” value ([1]; aminoglycoside alone) was 0.5 µg/mL, the MIC (MRSA USA300) was 0.5 µg/mL and the MIC [2, 10] was 4 to 8 µg/mL. For the same molecule, the MIC (MRSA USA100) was 0.5 µg/mL, the MIC (S. aureus hemB (SaR2)) was 16 µg/mL and the MIC (S. aureus hemB (SaR1)) was 4 to 8 µg/mL. It also gave an MIC (MRSA COL) of 0.25 µg/mL.

`[H]/N=C(/N)N[C@H]1[C@H](O)[C@@H](O)[C@H](O[C@@H]2O[C@@H](C)[C@](O)(C=O)[C@H]2O[C@@H]2O[C@@H](CO)[C@H](O)[C@@H](O)[C@@H]2NC)[C@@H](N/C(N)=N\[H])[C@@H]1O` [Streptomycin, reference compound] was tested, and the “MIC of aminoglycoside … with Compound 14” value [1] was 1 µg/mL, the “Potentiation fold with Compound 14” value [1] was 4-8 fold and the MIC [1, 5] was 4 to 8 µg/mL.

For `NCC[C@H](O)C(=O)N[C@@H]1C[C@H](N)[C@@H](O[C@H]2O[C@H](CN)[C@@H](O)[C@H](O)[C@H]2O)[C@H](O)[C@H]1O[C@H]1O[C@H](CO)[C@@H](O)[C@H](N)[C@H]1O` [Amikacin, reference compound], the “MIC of aminoglycoside … with Compound 14” value [1] was 0.25 µg/mL, the “Potentiation fold with Compound 14” value [1] was 16 fold and the MIC [1, 5] was 4 µg/mL.

For “Tomatidine hydrochloride [Compound 3, reference compound]”, the “MIC vs ATCC29213” value ([1]; compound tested alone) was over 64 µg/mL, the “MIC vs ATCC29213” value ([1]; compound tested alone, listed as tomatidine hydrochloride salt) was over 64 µg/mL and the “potentiation activity” value ([1]; compound used at 8 μg/mL) was “High”. The “Combination MIC vs ATCC29213” value ([1]; compound used at 8 μg/mL) was 0.06, the MIC [2, 10] was 0.0625 µg/mL and the “Activity of the compounds” value [2] was “High (MIC = 0.06-0.25 μg/mL: high activity)”. For the same molecule, the “MIC vs SCV” value [2] was 0.06 µg/mL, the “effect in time-kill in combination with gentamicin” value ([3]; 8 μg/ml with 2 μg/ml gentamicin) was “not seen” and the “effect on growth in time-kill (CFU)” value ([3]; used alone at 8 μg/ml) was “does not affect the growth”. It also gave an MIC (S. aureus hemB (SaR2)) of over 32 µg/mL and an MIC (S. aureus hemB (SaR1)) of over 32 µg/mL.

With `CCCCNC(C)[C@H]1CC[C@H]2[C@@H]3CC[C@H]4C[C@@H](O)CC[C@]4(C)[C@H]3CC[C@]12C.Cl` (mixture of isomers) [Compound 48, 3β-Hydroxy-20-butylamino-5α-pregnane hydrochloride] the “potentiaton fold with gentamicin” value [1, 7] was 8 x, the “potentiation / synergy” value [1] was “strong or moderate synergy” and the MIC [1, 8] was 64 µg/mL. The “potentiation activity” value ([1]; compound used at 8 μg/mL) was “High”, the “Combination MIC vs ATCC29213” value ([1]; compound used at 8 μg/mL) was 0.06 and the MIC [2, 9] was 4 to 8 µg/mL. For the same molecule, the “Activity of the compounds” value [2] was “Moderate (MIC = 0.5-4 μg/mL: moderate activity)”.

For `CC1=C(C(=O)O)N2C(=O)[C@@H](NC(=O)[C@H](N)c3ccccc3)[C@H]2SC1` [Cefalexin, cefalexin], the MIC (MRSA USA300; [6]) was 256 µg/mL, the MIC [4] was 256 µg/mL and the MIC (MRSA USA100; [6]) was 256 µg/mL. For the same molecule, the MIC (MRSA COL; [6]) was 256 µg/mL.
